Data: patent publication US8802597B2, “Herbicidal pyrimidines” (E I du Pont de Nemours and Company, priority 2003, dated 2014)
Where two headings read alike, the source gives them in different places.

Legend:
Type in all cases: in vivo
[1] = test system: Surinam grass (Brachiaria decumbens); test: Test B pre/postemergence; conditions: Urochloa decumbens; for pest or weed control at 125 g/ha: 125 g ai/ha; for pest or weed control at 500 g/ha: 500 g ai/ha
Method in brief: (§1)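 Visual rating, 0 (no effect) to 100 (complete control) versus controls, taken 13–15 days after treatment in greenhouse. Compounds formulated in non-phytotoxic solvent plus surfactant; pre: sprayed after seeding; post: plants at 1- to 4-leaf stage, 2–18 cm.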

[2] = test system: barnyardgrass (Echinochloa crus-galli); test: Test B pre/postemergence; conditions: Echinochloa crus-galli; for pest or weed control at 125 g/ha: 125 g ai/ha; for pest or weed control at 500 g/ha: 500 g ai/ha
Method in brief: as §1

[3] = test system: cocklebur (Xanthium strumarium); test: Test B pre/postemergence; conditions: Xanthium strumarium; for pest or weed control at 125 g/ha: 125 g ai/ha; for pest or weed control at 500 g/ha: 500 g ai/ha
Method in brief: as §1

corn (Zea mays) = test: Test B pre/postemergence; conditions: Zea mays
Method in brief: as §1

[4] = test system: crabgrass (Digitaria sanguinalis); test: Test B pre/postemergence; conditions: Digitaria sanguinalis; for pest or weed control at 125 g/ha: 125 g ai/ha; for pest or weed control at 500 g/ha: 500 g ai/ha
Method in brief: as §1

[5] = test system: giant foxtail (Setaria faberii); test: Test B pre/postemergence; conditions: Setaria faberi; for pest or weed control at 125 g/ha: 125 g ai/ha; for pest or weed control at 500 g/ha: 500 g ai/ha
Method in brief: as §1

[6] = test system: lambsquarters (Chenopodium album); test: Test B pre/postemergence; conditions: Chenopodium album; for pest or weed control at 125 g/ha: 125 g ai/ha; for pest or weed control at 500 g/ha: 500 g ai/ha
Method in brief: as §1

[7] = test system: morningglory (Ipomoea coccinea); test: Test B pre/postemergence; conditions: Ipomoea; for pest or weed control at 125 g/ha: 125 g ai/ha; for pest or weed control at 500 g/ha: 500 g ai/ha
Method in brief: as §1

[8] = test system: pigweed (Amaranthus retroflexus); test: Test B pre/postemergence; conditions: Amaranthus retroflexus; for pest or weed control at 125 g/ha: 125 g ai/ha; for pest or weed control at 500 g/ha: 500 g ai/ha
Method in brief: as §1

[9] = test system: velvetleaf (Abutilon theophrasti); test: Test B pre/postemergence; conditions: Abutilon theophrasti; for pest or weed control at 125 g/ha: 125 g ai/ha; for pest or weed control at 500 g/ha: 500 g ai/ha
Method in brief: as §1

[10] = test system: wheat (Triticum aestivum); test: Test B pre/postemergence; conditions: Triticum aestivum; for plant injury at 500 g/ha: 500 g ai/ha
Method in brief: as §1

[11] = test system: blackgrass (Alopecurus myosuroides); test: Test B postemergence; conditions: Alopecurus myosuroides, post-emergence
Method in brief: as §1

wild oat (Avena fatua) = test: Test B postemergence; conditions: Avena fatua, post-emergence
Method in brief: as §1

[12] = test system: barnyardgrass (Echinochloa crus-galli); test: Test B flooded paddy test; conditions: Echinochloa crus-galli, Flood, 1000 g ai/ha; scale 0 (no effect) to 100 (complete control); read-out: Plant response rating, Barnyardgrass
Method in brief: (§2)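 Plants were grown to the 2-leaf stage before treatment, then kept in a greenhouse for 13 to 15 days. Injury was rated visually against untreated controls on a 0 to 100 scale, where 0 is no effect and 100 is complete control.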

[13] = test system: duck salad (Heteranthera limosa); test: Test B flooded paddy test; conditions: Heteranthera limosa, Flood, 1000 g ai/ha; scale 0 to 100; read-out: Plant response rating, Ducksalad
Method in brief: as §2

rice (Oryza sativa) = test: Test B flooded paddy test; conditions: Oryza sativa, Flood, 1000 g ai/ha; scale 0 to 100; read-out: Plant response rating, Rice
Method in brief: as §2

[14] = test system: umbrella sedge (Cyperus difformis); test: Test B flooded paddy test; conditions: Cyperus difformis, Flood, 1000 g ai/ha; scale 0 to 100; read-out: Plant response rating, Sedge, Umbrella
Method in brief: as §2

CNc1nc(C2CC2)nc(C(=O)OC)c1Br [Compound 5]
10%: pest or weed control at 500 g/ha ([1]; pre-emergence, Preemergence, scale 0 to 100 (0 no effect, 100 complete control), read-out: Surinam Grass plant response rating) | pest or weed control at 125 g/ha ([2]; pre-emergence, Preemergence, scale 0 to 100 (0 no effect, 100 complete control), read-out: Plant response rating, Barnyardgrass) | pest or weed control at 500 g/ha ([5]; pre-emergence, Preemergence, scale 0 to 100 (0 no effect, 100 complete control), read-out: Foxtail, Giant plant response rating)
90%: pest or weed control at 500 g/ha ([2]; post-emergence, Postemergence, scale 0 to 100, read-out: Plant response rating, Barnyardgrass) | Corn plant response rating (crop injury, 0 = no effect, 100 = complete kill) at 500 g/ha (corn (Zea mays); post-emergence, Postemergence, 500 g ai/ha, scale 0 to 100) | pest or weed control at 500 g/ha ([4]; post-emergence, Postemergence, scale 0 to 100, read-out: Plant response rating, Crabgrass) | pest or weed control at 125 g/ha ([6]; pre-emergence, Preemergence, scale 0 to 100 (0 no effect, 100 complete control), read-out: Plant response rating, Lambsquarters) | pest or weed control at 125 g/ha ([8]; post-emergence, Postemergence, scale 0 to 100 (0 no effect, 100 complete control), read-out: Pigweed plant response rating) | pest or weed control at 125 g/ha ([8]; pre-emergence, Preemergence, scale 0 to 100 (0 no effect, 100 complete control), read-out: Plant response rating, Pigweed) | pest or weed control at 500 g/ha ([8]; pre-emergence, Preemergence, scale 0 to 100 (0 no effect, 100 complete control), read-out: Pigweed plant response rating) | pest or weed control at 500 g/ha ([9]; post-emergence, Postemergence, scale 0 to 100, read-out: Plant response rating, Velvetleaf) | pest or weed control at 500 g/ha ([9]; pre-emergence, Preemergence, scale 0 to 100 (0 no effect, 100 complete control), read-out: Velvetleaf plant response rating) | pest or weed control at 1000 g/ha [13] | pest or weed control at 1000 g/ha [14]
30%: pest or weed control at 500 g/ha ([2]; pre-emergence, Preemergence, scale 0 to 100 (0 no effect, 100 complete control), read-out: Barnyardgrass plant response rating) | plant injury at 125 g/ha (corn (Zea mays); post-emergence, Postemergence, 125 g ai/ha, scale 0 to 100 (0 no effect, 100 complete control), read-out: Corn plant response rating)
100%: pest or weed control at 500 g/ha ([3]; post-emergence, Postemergence, scale 0 to 100, read-out: Plant response rating, Cocklebur) | pest or weed control at 125 g/ha ([6]; post-emergence, Postemergence, scale 0 to 100 (0 no effect, 100 complete control), read-out: Lambsquarters plant response rating) | pest or weed control at 500 g/ha ([6]; post-emergence, Postemergence, scale 0 to 100, read-out: Plant response rating, Lambsquarters) | pest or weed control at 500 g/ha ([6]; pre-emergence, Preemergence, scale 0 to 100 (0 no effect, 100 complete control), read-out: Lambsquarters plant response rating) | pest or weed control at 125 g/ha ([7]; post-emergence, Postemergence, scale 0 to 100 (0 no effect, 100 complete control), read-out: Morningglory plant response rating) | pest or weed control at 500 g/ha ([7]; post-emergence, Postemergence, scale 0 to 100, read-out: Plant response rating, Morningglory) | pest or weed control at 500 g/ha ([8]; post-emergence, Postemergence, scale 0 to 100, read-out: Plant response rating, Pigweed)
70%: pest or weed control at 125 g/ha ([3]; pre-emergence, Preemergence, scale 0 to 100 (0 no effect, 100 complete control), read-out: Plant response rating, Cocklebur) | plant injury at 500 g/ha (corn (Zea mays); pre-emergence, Preemergence, 500 g ai/ha, scale 0 to 100 (0 no effect, 100 complete control), read-out: Corn plant response rating) | pest or weed control at 500 g/ha ([4]; pre-emergence, Preemergence, scale 0 to 100 (0 no effect, 100 complete control), read-out: Crabgrass plant response rating) | pest or weed control at 125 g/ha ([7]; pre-emergence, Preemergence, scale 0 to 100 (0 no effect, 100 complete control), read-out: Plant response rating, Morningglory) | pest or weed control at 125 g/ha ([9]; post-emergence, Postemergence, scale 0 to 100 (0 no effect, 100 complete control), read-out: Velvetleaf plant response rating) | pest or weed control at 125 g/ha ([9]; pre-emergence, Preemergence, scale 0 to 100 (0 no effect, 100 complete control), read-out: Plant response rating, Velvetleaf) | pest or weed control at 125 g/ha ([11]; 125 g ai/ha, scale 0 to 100 (0 no effect, 100 complete control), read-out: Blackgrass plant response rating)
0%: pest or weed control at 125 g/ha ([1]; pre-emergence, Preemergence, scale 0 to 100 (0 no effect, 100 complete control), read-out: Plant response rating, Surinam Grass) | Corn plant response rating (crop injury, 0 = no effect, 100 = complete kill) at 125 g/ha (corn (Zea mays); pre-emergence, Preemergence, 125 g ai/ha, scale 0 to 100 (0 no effect, 100 complete control)) | pest or weed control at 125 g/ha ([5]; pre-emergence, Preemergence, scale 0 to 100 (0 no effect, 100 complete control), read-out: Plant response rating, Foxtail, Giant) | plant injury at 1000 g/ha (rice (Oryza sativa))
80%: pest or weed control at 500 g/ha ([1]; post-emergence, Postemergence, scale 0 to 100, read-out: Plant response rating, Surinam Grass) | pest or weed control at 125 g/ha ([3]; post-emergence, Postemergence, scale 0 to 100 (0 no effect, 100 complete control), read-out: Cocklebur plant response rating) | pest or weed control at 500 g/ha ([3]; pre-emergence, Preemergence, scale 0 to 100 (0 no effect, 100 complete control), read-out: Cocklebur plant response rating) | pest or weed control at 500 g/ha ([7]; pre-emergence, Preemergence, scale 0 to 100 (0 no effect, 100 complete control), read-out: Morningglory plant response rating) | pest or weed control at 500 g/ha ([11]; 500 g ai/ha, scale 0 to 100, read-out: Plant response rating, Blackgrass)
60%: plant injury at 500 g/ha ([10]; post-emergence, Postemergence, scale 0 to 100, read-out: Plant response rating, Wheat) | pest or weed control at 500 g/ha (wild oat (Avena fatua); 500 g ai/ha, scale 0 to 100, read-out: Plant response rating, Oat, Wild)
20%: pest or weed control at 125 g/ha ([4]; pre-emergence, Preemergence, scale 0 to 100 (0 no effect, 100 complete control), read-out: Plant response rating, Crabgrass)
50%: pest or weed control at 125 g/ha ([1]; post-emergence, Postemergence, scale 0 to 100 (0 no effect, 100 complete control), read-out: Surinam Grass plant response rating) | pest or weed control at 125 g/ha ([2]; post-emergence, Postemergence, scale 0 to 100 (0 no effect, 100 complete control), read-out: Barnyardgrass plant response rating) | pest or weed control at 125 g/ha ([4]; post-emergence, Postemergence, scale 0 to 100 (0 no effect, 100 complete control), read-out: Crabgrass plant response rating) | pest or weed control at 500 g/ha ([5]; post-emergence, Postemergence, scale 0 to 100, read-out: Plant response rating, Foxtail, Giant) | plant injury at 125 g/ha ([10]; post-emergence, Postemergence, 125 g ai/ha, scale 0 to 100 (0 no effect, 100 complete control), read-out: Wheat plant response rating) | plant injury at 500 g/ha ([10]; pre-emergence, Preemergence, scale 0 to 100 (0 no effect, 100 complete control), read-out: Wheat plant response rating) | pest or weed control at 1000 g/ha [12]
40%: pest or weed control at 125 g/ha ([5]; post-emergence, Postemergence, scale 0 to 100 (0 no effect, 100 complete control), read-out: Foxtail, Giant plant response rating) | pest or weed control at 125 g/ha (wild oat (Avena fatua); 125 g ai/ha, scale 0 to 100 (0 no effect, 100 complete control), read-out: Oat, Wild plant response rating)
